One test has as its target T1, human OX1 receptor (Homo sapiens, UniProt O43613).
T1 sequence (O43613 1-425): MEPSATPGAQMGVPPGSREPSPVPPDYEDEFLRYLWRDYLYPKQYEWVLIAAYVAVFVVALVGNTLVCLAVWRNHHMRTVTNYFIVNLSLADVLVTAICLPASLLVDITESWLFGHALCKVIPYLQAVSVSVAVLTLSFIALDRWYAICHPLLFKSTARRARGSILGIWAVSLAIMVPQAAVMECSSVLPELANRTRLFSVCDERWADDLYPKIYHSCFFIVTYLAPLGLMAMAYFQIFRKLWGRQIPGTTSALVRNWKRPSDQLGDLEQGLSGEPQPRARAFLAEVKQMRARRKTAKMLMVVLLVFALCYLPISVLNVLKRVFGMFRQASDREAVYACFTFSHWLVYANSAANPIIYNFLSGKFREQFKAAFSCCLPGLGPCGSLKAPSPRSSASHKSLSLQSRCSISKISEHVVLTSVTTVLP
The experiment in a line: [3H]-radioligand binding assay, OX1. The following applies: [3H]-radioligand binding, human OX1 membranes; read-out: pKi average OX1 (converted). Set-up: made in house; host or cells: SF21 insect cells (baculovirus; P0 virus made in SF9). An excerpt:
(§1) Cloning, Baculovirus generation, large-scale infection of SF21 cells and membrane preparation. Human OX1 or OX2 receptor were cloned into Invitrogen's (ThermoFisher Scientific, UK) Bac-to-Bac Baculovirus Expression System. P0 baculovirus was generated by transfecting SF9 cells with bacmid DNA using Cellfectin® II transfection reagent (ThermoFisher Scientific, UK, Catalog number 10362-100). Following P0 generation P1 virus was then generated ready for large scale infection and membrane preparation. SF21 cells were grown in expression medium ESF921 (Expression Systems, USA, catalog number 96-001-01) supplemented with 10% heat-inactivated FBS and 1% Pen/Strep and were infected at a cell density of 2.5×10^6 cells/mL and a multiplicity of infection of 1.0 for both human OX1R and OX2R. Incubation was carried out at over 48 h in a shaking incubator set at 27° C. The cell culture was then centrifuged at 2,500 rcf for 10 min at 4° C. The pellets were resuspended in cold PBS supplemented with Roche's Complete EDTA-free protease inhibitor cocktail tablets (Roche Applied Sciences, catalog number 05056489001), 1 mM PMSF and 1 mM EDTA. The resuspended cell paste was then centrifuged at 3,273 rcf for 12 min at 4° C. The supernatant was discarded and the pellet frozen at −80° C. The cell pellet from a 4 L culture was resuspended in buffer containing 50 mM HEPES pH 7.5, 150 mM NaCl, 8 Roche EDTA-Free protease inhibitor cocktail tablets and 1 mM PMSF. The suspension was left stirring at rt for 1 h and then homogenised for 90 s at 9,500 rpm using a VDI 25 (VWR, USA) homogeniser. The cells were then lysed using a Microfluidiser processor M-110L Pneumatic (Microfluidics, USA) at 60 PSI and membranes collected by ultracentrifugation at 204.7 k×g for 1 h. The supernatant was discarded and the pellet was resuspended and homogenised in 90 s at 9,500 rpm in 50 mL (25 mL for each 2 L culture) of buffer containing 50 mM Hepes pH 7.5, 150 mM NaCl, 3 Roche EDTA-free protease inhibitor cocktail tablets and 1 mM PMSF. The resulting membranes were then stored at −80° C.
(§2) [^3H]-radioligand binding assay. After thawing, membrane homogenates were resuspended in the binding buffer (8.5 mM HEPES, pH 7.4, 1.3 mM CaCl2, 1.2 mM MgSO4, 118 mM NaCl, 4.7 mM KCl, 4 mM NaHCO3, 1.2 mM KH2PO4, 11 mM glucose) to a final assay concentration of 6.4 μg (OX1) or 1.4 μg (OX2) protein per well. Saturation isotherms were determined by the addition of various concentrations (0-30 nM) of [^3H]-4-(2,6-difluoro-4-methoxybenzyl)-2-(5,6-dimethoxypyridin-3-yl)-2H-1,2,4-benzothiadiazin-3(4H)-one 1,1-dioxide (Christopher et al, MedChemComm., 2015, 6, 947-955) in a total reaction volume of 250 μL for 90 min at rt. At the end of the incubation, membranes were filtered onto a 96-well GF/B filter pre-incubated with 0.5% polyethylenimine, with a Tomtec cell harvester and washed 5 times with 0.5 mL distilled water. Non-specific binding (NSB) was measured in the presence of 3.33 μM [4-(5-chloro-1,3-benzoxazol-2-yl)-7-methyl-1,4-diazepan-1-yl][5-methyl-2-(2H-1,2,3-triazol-2-yl)phenyl]methanone (Wertz et al, Angew. Chem. Int. Ed., 2011, 50, 11511-11515). Radioactivity on the filter was counted (1 min) on a Microbeta radiometric plate counter (Perkin Elmer) after addition of 50 μL of scintillation fluid (LabLogic: Part #SG-BXX-14). […] IC50 values were derived from the inhibition curve and the equilibrium dissociation constant (Ki) values were calculated using the Cheng-Prusoff equation.

In another test the target is T2, human OX2 receptor (Homo sapiens, UniProt O43614).
T2 sequence (O43614 1-444): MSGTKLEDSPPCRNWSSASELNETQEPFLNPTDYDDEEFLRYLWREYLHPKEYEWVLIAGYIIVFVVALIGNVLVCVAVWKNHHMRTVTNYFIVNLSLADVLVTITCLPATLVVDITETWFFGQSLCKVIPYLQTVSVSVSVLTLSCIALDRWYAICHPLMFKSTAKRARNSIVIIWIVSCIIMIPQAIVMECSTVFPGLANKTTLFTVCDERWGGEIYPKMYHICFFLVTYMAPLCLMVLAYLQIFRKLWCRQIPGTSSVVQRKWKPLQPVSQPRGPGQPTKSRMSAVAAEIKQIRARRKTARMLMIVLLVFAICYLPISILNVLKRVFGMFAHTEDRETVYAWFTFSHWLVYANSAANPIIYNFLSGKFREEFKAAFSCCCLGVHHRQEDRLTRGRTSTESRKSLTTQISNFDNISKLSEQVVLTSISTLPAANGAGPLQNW
Put plainly: [3H]-radioligand binding assay, OX2. Set-up: made in house; host or cells: SF21 insect cells (baculovirus; P0 virus made in SF9). The following applies: [3H]-radioligand binding, human OX2 membranes; read-out: pKi average OX2 (converted).
Source text: as §1, §2

The values that follow come from US20210179578A1, “OX1 ANTAGONISTS” (Heptares Therapeutics Limited, priority 2017, published 2021).

The structures appear in SMILES notation.

As for `COc1cc(F)c(CN2C(=O)N(c3cc(S(C)(=O)=O)c(OC)nc3OC)CCc3c(F)cccc32)c(F)c1` [Example 25, 1-(2,6-difluoro-4-methoxybenzyl)-3-[2,6-dimethoxy-5-(methylsulfonyl)pyridin-3-yl]-6-fluoro-1,3,4,5-tetrahydro-2H-1,3-benzodiazepin-2-one], the Ki on human OX1 receptor was 1.58 nM; at human OX2 receptor, > 126 nM.
On the same counts, the results for `COc1ncc(C2CCc3c(F)cccc3N(Cc3c(F)cc(Cl)cc3F)C2=O)cc1S(C)(=O)=O` (single isomer, unassigned) [Example 22, 1-(4-chloro-2,6-difluorobenzyl)-6-fluoro-3-[6-methoxy-5-(methylsulfonyl)pyridin-3-yl]-1,3,4,5-tetrahydro-2H-1-benzazepin-2-one] are 0.501 nM and > 631 nM.
For `Cc1ccc(N2CCc3c(F)cccc3N(Cc3c(F)cc(Br)cc3F)C2=O)cc1C(C)(F)F` [Example 1, 1-(4-bromo-2,6-difluorobenzyl)-3-[3-(1,1-difluoroethyl)-4-methylphenyl]-6-fluoro-1,3,4,5-tetrahydro-2H-1,3-benzodiazepin-2-one] the same measures were 2 nM and 200 nM.
Turning to `COCc1cc(F)c(CN2C(=O)N(c3cc(C(C)(F)F)c(OC)nc3OC)CCc3c(F)cccc32)c(F)c1` [Example 24, 3-[5-(1,1-difluoroethyl)-2,6-dimethoxypyridin-3-yl]-1-[2,6-difluoro-4-(methoxymethyl)benzyl]-6-fluoro-1,3,4,5-tetrahydro-2H-1,3-benzodiazepin-2-one], the Ki at human OX1 receptor is 1 nM; on human OX2 receptor, > 158 nM.
For `[2H]C([2H])([2H])Oc1cc(F)c(CN2C(=O)N(c3cnc(OC)c(C(C)(F)F)c3)CCc3c(F)cccc32)c(F)c1` [Example 6, 3-[5-(1,1-difluoroethyl)-6-methoxypyridin-3-yl]-1-{2,6-difluoro-4-[(^2H3)methyloxy]benzyl}-6-fluoro-1,3,4,5-tetrahydro-2H-1,3-benzodiazepin-2-one] the same measures were 0.398 nM and 100 nM.
On the same counts, the results for `COc1ncc(N2CCc3c(F)cccc3N(Cc3ccc(Br)cc3F)C2=O)cc1C(C)(F)F` [Example 10, 1-(4-bromo-2-fluorobenzyl)-3-[5-(1,1-difluoroethyl)-6-methoxypyridin-3-yl]-6-fluoro-1,3,4,5-tetrahydro-2H-1,3-benzodiazepin-2-one] are 1.26 nM and > 251 nM.
For `CSc1cc(N2CCc3c(F)cccc3N(Cc3c(F)cc(Br)cc3F)C2=O)ccc1C` [Example 26, 1-(4-bromo-2,6-difluorobenzyl)-6-fluoro-3-[4-methyl-3-(methylsulfanyl)phenyl]-1,3,4,5-tetrahydro-2H-1,3-benzodiazepin-2-one], the Ki on human OX1 receptor is 1.26 nM; on human OX2 receptor it was 100 nM.
On the same counts, the results for `COc1ncc(C2CCc3c(F)cccc3N(Cc3c(F)cc(Br)cc3F)C2=O)cc1C(C)(F)F` (single isomer, unassigned) [Example 12, 1-(4-bromo-2,6-difluorobenzyl)-3-[5-(1,1-difluoroethyl)-6-methoxypyridin-3-yl]-6-fluoro-1,3,4,5-tetrahydro-2H-1-benzazepin-2-one] are 0.398 nM and > 398 nM.
For `COc1nc(OC)c(C(C)(F)F)cc1N1CCc2c(F)cccc2N(Cc2c(F)cc(Br)cc2F)C1=O` [Example 23, 1-(4-bromo-2,6-difluorobenzyl)-3-[5-(1,1-difluoroethyl)-2,6-dimethoxypyridin-3-yl]-6-fluoro-1,3,4,5-tetrahydro-2H-1,3-benzodiazepin-2-one], the Ki is 1.26 nM at human OX1 receptor and > 126 nM on human OX2 receptor.
For `COc1ncc(C2CCc3c(F)cccc3N(Cc3c(F)cc(Br)cc3F)C2=O)cc1S(C)(=O)=O` (racemic) [Example 19, 1-(4-bromo-2,6-difluorobenzyl)-6-fluoro-3-[6-methoxy-5-(methylsulfonyl)pyridin-3-yl]-1,3,4,5-tetrahydro-2H-1-benzazepin-2-one] the same measures were 3.98 nM and > 251 nM.
For `Cc1ncc(C2CCc3c(F)cccc3N(Cc3c(F)cc(Br)cc3F)C2=O)cc1S(C)(=O)=O` (single isomer, unassigned) [Example 38, 1-(4-bromo-2,6-difluorobenzyl)-6-fluoro-3-[6-methyl-5-(methylsulfonyl)pyridin-3-yl]-1,3,4,5-tetrahydro-2H-1-benzazepin-2-one] the same measures were 10 nM and > 316 nM.
On the same counts, the results for `COc1ncc(C2CCc3c(F)cccc3N(Cc3cc(C#N)ccc3F)C2=O)cc1C(C)(F)F` (single isomer, unassigned) [Example 13, 3-({3-[5-(1,1-difluoroethyl)-6-methoxypyridin-3-yl]-6-fluoro-2-oxo-2,3,4,5-tetrahydro-1H-1-benzazepin-1-yl}methyl)-4-fluorobenzonitrile] are 0.794 nM and > 158 nM.
Regarding `COc1cc(F)c(CN2C(=O)N(c3cnc(OC)c(S(C)(=O)=O)c3)CCc3c(F)cccc32)c(F)c1F` [Example 15, 6-fluoro-3-[6-methoxy-5-(methylsulfonyl)pyridin-3-yl]-1-(2,3,6-trifluoro-4-methoxybenzyl)-1,3,4,5-tetrahydro-2H-1,3-benzodiazepin-2-one], the Ki is 1.26 nM at human OX1 receptor and > 251 nM on human OX2 receptor.
For `Cc1cc(C)c(S(C)(=O)=O)cc1N1CCc2ccccc2N(Cc2c(F)cc(Br)cc2F)C1=O` [Example 29, 1-(4-bromo-2,6-difluorobenzyl)-3-[2,4-dimethyl-5-(methylsulfonyl)phenyl]-1,3,4,5-tetrahydro-2H-1,3-benzodiazepin-2-one] the same measures were 1.26 nM and 100 nM.
